The results in this text go back to patent US20260356856A1, “KRAS G12S AND G12C INHIBITORS” (MIRATI THERAPEUTICS, INC., priority 2023, published 2026).

The target of assay [1] is T1, KRas-mediated phosphorylation of ERK in A549 cells (Homo sapiens, UniProt P01116, G12S).
T1 construct: pERK HTRF read-out
Kind of assay: Inhibition of KRas-mediated phosphorylation of ERK (HTRF), A549 cells. The conditions noted are these: HTRF pERK, 3 h incubation. The class given is cell-based.

The target in another assay is T2, KRas G12C (Homo sapiens, UniProt P01116, G12C).
T2 construct: Biotinylated KRas (corresponding to amino acids 1-169, produced at Accelegan Inc.); biotin (biotinylated); purchased Accelegan Inc
T2 sequence (P01116 1-169 isoform P01116-2 G12C): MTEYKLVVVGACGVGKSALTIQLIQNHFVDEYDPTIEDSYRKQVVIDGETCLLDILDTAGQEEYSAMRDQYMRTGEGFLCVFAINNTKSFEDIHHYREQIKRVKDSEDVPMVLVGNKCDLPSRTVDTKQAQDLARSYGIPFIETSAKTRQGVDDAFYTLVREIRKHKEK
As to the kind of experiment: KRas binding assay, TR-FRET displacement of Cy5 labelled tracer. Particulars: 60-minute incubation at room temperature, 1% DMSO, pH 7.5. The gist of the method:
(§1)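 Compound competes with tracer for biotin-labelled KRas (amino acids 1-169) bound to terbium-streptavidin. Incubation runs 60 minutes at room temperature, final DMSO 1%. IC50 values derive from a 4-parameter fit.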
A general note: In TR-FRET formats the signal depends on donor and acceptor labels being close together.

Another assay deals with T3, KRas G12S (Homo sapiens, UniProt P01116, G12S).
T3 construct: Biotinylated KRas (corresponding to amino acids 1-169, produced at Accelegan Inc.); biotin (biotinylated); purchased Accelegan Inc
T3 sequence (P01116 1-169 isoform P01116-2 G12S): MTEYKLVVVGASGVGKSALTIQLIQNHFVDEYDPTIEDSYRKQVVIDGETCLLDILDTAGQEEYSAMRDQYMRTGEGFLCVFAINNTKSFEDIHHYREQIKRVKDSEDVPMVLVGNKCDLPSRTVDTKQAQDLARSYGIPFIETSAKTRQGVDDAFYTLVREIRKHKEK
Described as above. Particulars: 60-minute incubation at room temperature, 1% DMSO, pH 7.5. The gist of the method:
as §1

The target in another assay is T4, KRas WT (Homo sapiens, UniProt P01116).
T4 construct: Biotinylated KRas (corresponding to amino acids 1-169, produced at Accelegan Inc.); biotin (biotinylated); purchased Accelegan Inc
T4 sequence (P01116 1-169 isoform P01116-2): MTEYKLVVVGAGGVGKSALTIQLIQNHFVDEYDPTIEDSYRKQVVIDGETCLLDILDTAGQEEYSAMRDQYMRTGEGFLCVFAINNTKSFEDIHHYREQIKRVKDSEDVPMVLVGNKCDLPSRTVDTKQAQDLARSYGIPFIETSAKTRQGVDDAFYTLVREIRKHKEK
The description is as above. The conditions noted are these: 60-minute incubation at room temperature, 1% DMSO, pH 7.5. The gist of the method: as §1

In assay [2] the target is T5, KRas-mediated phosphorylation of ERK in MKN1 cells (Homo sapiens, UniProt P01116).
T5 construct: pERK HTRF read-out
T5 sequence (P01116 1-188 isoform P01116-2): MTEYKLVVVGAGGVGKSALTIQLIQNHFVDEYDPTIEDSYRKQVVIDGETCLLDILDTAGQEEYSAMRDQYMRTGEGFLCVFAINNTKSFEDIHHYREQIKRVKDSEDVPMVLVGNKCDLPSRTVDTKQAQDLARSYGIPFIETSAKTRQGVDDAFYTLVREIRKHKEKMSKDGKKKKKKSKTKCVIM
As to the kind of experiment: Inhibition of KRas-mediated phosphorylation of ERK (HTRF), MKN1 cells. The assay is classed as cell-based. The conditions noted are these: MKN1 cells (KRas WT); HTRF pERK; 3 h incubation. As to the method: Inhibition of KRas Phosphorylation of ERK (HTRF) by Exemplary Compounds of Formula (Ia) or (Ib)
Cisbio HTRF Advanced pERK Assay Catalog #64AERPEH • Cells: MKN1, PSN1 • Procedure: • 1. Day 1: Seed 6,000 cells/well −25 μl/well in 384-well white solid bottom plate; RPM1_10% FBS. Incubate overnight at 37 °C/5% CO2. • 2.

T1 sequence (P01116 1-188 isoform P01116-2 G12S): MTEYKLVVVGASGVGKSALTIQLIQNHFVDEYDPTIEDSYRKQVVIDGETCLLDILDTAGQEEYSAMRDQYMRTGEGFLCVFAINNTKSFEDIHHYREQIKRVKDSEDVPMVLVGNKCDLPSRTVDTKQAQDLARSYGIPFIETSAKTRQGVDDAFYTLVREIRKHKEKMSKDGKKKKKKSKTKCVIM

Take `Cc1ccn(C(=O)C2CCN(c3nc(OC[C@@]45CCCN4C/C(=C\F)C5)nc4c(F)c(-c5ccc(F)c6sc(N)c(C#N)c56)c(Cl)cc34)CC2)n1` [Example 135, 2-amino-4-(6-chloro-8-fluoro-2-(((S,Z)-2-(fluoromethylene)tetrahydro-1H-pyrrolizin-7a(5H)-yl)methoxy)-4-(4-(3-methyl-1H-pyrazole-1-carbonyl)piperidin-1-yl)quinazolin-7-yl)-7-fluorobenzo[b]thiophene-3-carbonitrile]: the IC50 in assay [1] was 6 nM; on KRas G12C it was 9 nM; at KRas G12S, 6 nM; on KRas WT it was 11 nM; in assay [2], 83 nM.

Consider `Cc1ccn(C(=O)C2CCCCN(c3nc(OC[C@@]45CCCN4C[C@H](F)C5)nc4c(F)c(-c5ccc(F)c6sc(N)c(C#N)c56)c(Cl)cc34)C2)n1` (stereo partly drawn) [Example 136, 2-amino-4-(6-chloro-8-fluoro-2-(((2R,7aS)-2-fluorotetrahydro-1H-pyrrolizin-7a(5H)-yl)methoxy)-4-(3-(3-methyl-1H-pyrazole-1-carbonyl)azepan-1-yl)quinazolin-7-yl)-7-fluorobenzo[b]thiophene-3-carbonitrile], for which the IC50 in assay [1] is 249 nM; at KRas G12C, 16 nM; on KRas G12S it was 17 nM; on KRas WT it was 23 nM; in assay [2], 13 nM.

Take `Cc1ccn(C(=O)C2CCCCN(c3nc(OC[C@@]45CCCN4C[C@H](F)C5)nc4c(F)c(-c5ccc(F)c6sc(N)c(C#N)c56)c(Cl)cc34)CC2)n1` (stereo partly drawn) [Example 137, 2-amino-4-(6-chloro-8-fluoro-2-(((2R,7aS)-2-fluorotetrahydro-1H-pyrrolizin-7a(5H)-yl)methoxy)-4-(4-(3-methyl-1H-pyrazole-1-carbonyl)azocan-1-yl)quinazolin-7-yl)-7-fluorobenzo[b]thiophene-3-carbonitrile]: the IC50 worked out at 29 nM in assay [1]; 13 nM at KRas G12C; 10 nM at KRas G12S; 44 nM at KRas WT; 142 nM in assay [2].

With `CCc1c(F)ccc2cc(O)cc(N3CCc4c(nc(OC[C@@]56CCCN5C[C@H](F)C6)nc4N4CCCCC(C(=O)n5ccc(C)n5)C4)C3)c12` (stereo partly drawn) [Example 147, (1-(7-(8-ethyl-7-fluoro-3-hydroxynaphthalen-1-yl)-2-(((2R,7aS)-2-fluorotetrahydro-1H-pyrrolizin-7a(5H)-yl)methoxy)-5,6,7,8-tetrahydropyrido[3,4-d]pyrimidin-4-yl)azepan-3-yl)(3-methyl-1H-pyrazol-1-yl)methanone], the IC50 in assay [1] worked out at 1210 nM; at KRas G12C, 16 nM; at KRas G12S, 37 nM; at KRas WT, 45 nM; in assay [2] it was 45 nM.

On to `CCc1c(F)ccc2cc(O)cc(N3CCc4c(nc(OC[C@@]56CCCN5C[C@H](F)C6)nc4N4CCCCC(C(=O)n5ccc(C)n5)CC4)C3)c12` (stereo partly drawn) [Example 148, (1-(7-(8-ethyl-7-fluoro-3-hydroxynaphthalen-1-yl)-2-(((2R,7aS)-2-fluorotetrahydro-1H-pyrrolizin-7a(5H)-yl)methoxy)-5,6,7,8-tetrahydropyrido[3,4-d]pyrimidin-4-yl)azocan-4-yl)(3-methyl-1H-pyrazol-1-yl)methanone], for which the 50% inhibitory concentration (IC50) in assay [1] came out at 140 nM; on KRas G12C, 19 nM; on KRas G12S it was 10 nM; on KRas WT, 147 nM; in assay [2] it was 108 nM.

On to `CCc1c(F)ccc2cc(O)cc(N3CCc4c(nc(OC[C@@]56CCCN5C[C@H](F)C6)nc4N4CCCC(C(=O)n5ccc(C)n5)CCC4)C3)c12` [Example 149, (1-(7-(8-ethyl-7-fluoro-3-hydroxynaphthalen-1-yl)-2-(((2R,7aS)-2-fluorotetrahydro-1H-pyrrolizin-7a(5H)-yl)methoxy)-5,6,7,8-tetrahydropyrido[3,4-d]pyrimidin-4-yl)azocan-5-yl)(3-methyl-1H-pyrazol-1-yl)methanone], for which the IC50 was over 10000 nM in assay [1]; 3740 nM at KRas G12C; 1470 nM at KRas G12S; 1310 nM at KRas WT; 6530 nM in assay [2].

Consider `CCc1c(F)ccc2cc(O)cc(-c3ncc4c(NC[C@@H]5C[C@H]5C(=O)n5ccc(C)n5)nc(OC[C@@]56CCCN5C[C@H](F)C6)nc4c3F)c12` [Example 158, ((1R,2R)-2-(((7-(8-ethyl-7-fluoro-3-hydroxynaphthalen-1-yl)-8-fluoro-2-(((2R,7aS)-2-fluorotetrahydro-1H-pyrrolizin-7a(5H)-yl)methoxy)pyrido[4,3-d]pyrimidin-4-yl)amino)methyl)cyclopropyl)(3-methyl-1H-pyrazol-1-yl)methanone], for which the IC50 in assay [1] stood at 126 nM; at KRas G12C, 29 nM; on KRas G12S it was 23 nM; at KRas WT it was 13 nM; in assay [2], 112 nM.

For `CCc1c(F)ccc2cc(O)cc(-c3ncc4c(N5C[C@H]6C[C@H](C(=O)n7ccc(C)n7)C[C@H]6C5)nc(OC[C@@]56CCCN5C[C@H](F)C6)nc4c3F)c12` [Example 160, ((3aR,5R,6aS)-2-(7-(8-ethyl-7-fluoro-3-hydroxynaphthalen-1-yl)-8-fluoro-2-(((2R,7aS)-2-fluorotetrahydro-1H-pyrrolizin-7a(5H)-yl)methoxy)pyrido[4,3-d]pyrimidin-4-yl)octahydrocyclopenta[c]pyrrol-5-yl)(3-methyl-1H-pyrazol-1-yl)methanone], the 50% inhibitory concentration (IC50) in assay [1] was 3380 nM; on KRas G12C, 1790 nM; on KRas G12S, 461 nM; on KRas WT it was 258 nM; in assay [2], 3690 nM.

In the case of `CCc1c(F)ccc2cc(O)cc(-c3ncc4c(N(C)CCCS(=O)(=O)n5ccnc5)nc(OC[C@@]56CCCN5C[C@H](F)C6)nc4c3F)c12` [Example 163, 4-(4-((3-((1H-imidazol-1-yl)sulfonyl)propyl)(methyl)amino)-8-fluoro-2-(((2R,7aS)-2-fluorotetrahydro-1H-pyrrolizin-7a(5H)-yl)methoxy)pyrido[4,3-d]pyrimidin-7-yl)-5-ethyl-6-fluoronaphthalen-2-ol], the IC50 in assay [1] turned out to be 7590 nM; on KRas G12C, 131 nM; on KRas G12S it was 129 nM; on KRas WT, 98 nM; in assay [2], 1250 nM.

For the molecule `CCc1c(F)ccc2cc(O)cc(-c3ncc4c(N5CCC(C(=O)N(C)C(=O)C(C)C)CC5)nc(OC[C@@]56CCCN5C[C@H](F)C6)nc4c3F)c12` [Example 166, 1-(7-(8-ethyl-7-fluoro-3-hydroxynaphthalen-1-yl)-8-fluoro-2-(((2R,7aS)-2-fluorotetrahydro-1H-pyrrolizin-7a(5H)-yl)methoxy)pyrido[4,3-d]pyrimidin-4-yl)-N-isobutyryl-N-methylpiperidine-4-carboxamide], the IC50 is 1780 nM in assay [1]; 310 nM on KRas G12C; 203 nM at KRas G12S; 229 nM on KRas WT; 622 nM in assay [2].

For the molecule `CCc1c(F)ccc2cc(O)cc(-c3ncc4c(N5CCCC(C(=O)n6ccc(C)n6)CC5)nc(OC[C@@H]5CCCN5C)nc4c3F)c12` (stereo partly drawn) [Example 168, (1-(7-(8-ethyl-7-fluoro-3-hydroxynaphthalen-1-yl)-8-fluoro-2-(((S)-1-methylpyrrolidin-2-yl)methoxy)pyrido[4,3-d]pyrimidin-4-yl)azepan-4-yl)(3-methyl-1H-pyrazol-1-yl)methanone], the IC50 in assay [1] turned out to be 245 nM; on KRas G12C it was 384 nM; on KRas G12S, 72 nM; at KRas WT it was 1380 nM; in assay [2], 8690 nM.

Broadly, the IC50 is the concentration needed to halve the response being measured.
